# According to US20100324150A1, “HYPERBRANCHED POLYGLYCEROL FOR IMPROVING HEART FUNCTION” (THE UNIVERSITY OF BRITISH COLUMBIA, priority 2007, published 2010):
# Legend:
# [1] = test system: H9C2 cells; test: Lactate production by H9C2 cells; type: cell-based, rat; conditions: for Lactate concentration / production in H9C2 cells (in words): relative to control
# Method: H9C2 (2-1) embryonic rat heart cells (passage 12, obtained from American Type Culture Collection, Manassas, Va.) were cultured in Dulbecco's modified Eagle's medium (DMEM—Gibco-Invitrogen) containing 10% fetal bovine serum (FBS) and 100 U/ml penicillin-streptomycin at 37° C. in a humidified atmosphere containing 5% CO2. The cells were subcultured into 60 mm culture dishes when 80% confluent (before fusion into myotubes occurred) and were differentiated toward a cardiac phenotype by exposure to DMEM containing 1% horse serum and 0.1 μM all-trans retinoic acid (Sigma) for four days (Menard et al 1999. J Biol Chem 274:29063-70; Bronstrom et al 2000. Int J. Biochem Cell Biol 32:993-1006). Retinoic acid was prepared in the dark in DMSO and stored at −20° C. The concentration of DMSO in the culture media was less than 0.2%. Media was changed daily.
# To screen for metabolic actions of dHPGs, H9C2 cells were exposed to a range of dHPG concentration (0.001 to 100 μM). Studies were conducted over six hours in serum-free Krebs-Henseleit (KH) solution (118 mM NaCl, 4.7 mM KCl, 1.2 mM KH2PO4, 1.2 mM MgSO4, 2.0 mM CaCl2, 25 mM NaHCO3, 0.4 mM Na2CO3) containing 0.4 mM palmitate (bound to fatty-acid free albumin), 5.5 mM glucose and 20 mU/L insulin. Aliquots of media (60 μl) were taken at 3 and 6 hours. Viability of cells was assessed by visual inspection of cell morphology using a microscope and by assessment of mitochondrial integrity (MTS—Promega). Accumulation of lactate in the bathing solution over 6 hrs was measured using a diagnostic kit (Sigma, St. Louis, Mo.). Lactate accumulation was expressed as μmol/mg protein. Protein content of the cultures was determined using a commercial Bicinchoninic Acid (BCA) protein assay kit from Sigma (St. Louis, Mo.). Pharmacological agents used as controls included Dicholoracetate (DCA), which directly stimulates glucose oxidation by activating pyruvate dehydrogenase and causes a reduction in lactate.
# A variety of dHPG polymers were administered to H9C2 cells in culture and the lactate production analyzed (Tables 2, 3; FIGS. 1a, b). […] Concentration range data (0.0001 to 250.0 uM), as well as controls (dichloroacetate-7.5 mM, DCA-BDH), a group exposed to oxfenicine (2 mM, OXF-Fluka), and a group exposed to oligomycin (2.0 μM, Oligo-Sigma).
# [2] = test system: isolated working rat hearts; test: Isolated working rat hearts, normoxic non-ischemic perfusion
# Method: Hearts from halothane (3-4%)-anesthetized male Sprague-Dawley rats were isolated and perfused as working preparations with Krebs-Henseleit (KH) solution at a left atrial preload of 11.5 mmHg and an aortic afterload of 80 mmHg in a closed recirculating system with oxygenated (95% O2-5% CO2) Krebs-Henseleit (KH) solution maintained at 37° C., as described (Burelle et al 2004. Am J Physiol Heart Circ Physiol 287:H1055-63; Allard et al 1994. Am J Physiol 267:H742-H750; Saeedi et al 2006. BMC Cardiovasc Disord 6:8). A first series of hearts was perfused with KH solution containing 0.6 or 1.2 mM [1-^14C]- or [9,10-^3H]-palmitate, prebound to fatty acid-free albumin (3%), together with 5.5 mM glucose, 0.5 mM lactate, and 20 mU/l insulin in order to measure rates of palmitate oxidation. A second series of hearts was perfused with KH solution containing 0.6 or 1.2 mM palmitate, 5.5 mM [5-^3H/U-^14C]-glucose, 0.5 mM lactate, and 20 mU/l insulin in order to measure glycolysis and glucose oxidation. Concentrations of insulin and substrates reflect values seen under physiologic and pathophysiologic conditions. […]
# Heart rate and systolic pressure may be measured using a pressure transducer (Viggo-Spectramed, Oxnard, Calif.) inserted in the afterload line of the isolated heart. Cardiac output and aortic flow may be measured via external flow probes (Transonic Systems, Ithaca, N.Y.) on the left atrial preload and aortic afterload lines, respectively. External work performed by the heart is expressed as, “rate-pressure product”, the product of heart rate and peak systolic pressure, and “hydraulic work”, the product of cardiac output and peak systolic pressure. […]
# Isolated, working rat hearts were exposed to 10 μM dHPG-85K-G71.4-C181.9-PEG26.7(RKK-108) and studied under normoxic, non-ischemic conditions. During normoxic, non-ischemic perfusion, RKK108 improves heart function (rate-pressure assessment—beats per minute×mmHg/1000) by about 10 to about 15% (FIG. 2), When heart function is assessed by hydraulic work an improvement of about 20% is also observed.
smiles,measurement,setting,value
"O=C(O)C(Cl)Cl [DCA, dichloroacetate]",Lactate Production by H9C2 Cells,[1]; 7.5 mM,63 ± 5 % Control
CC[C@H]1/C=C/C=C/C[C@@H](C)[C@H](O)[C@@](C)(O)C(=O)[C@@H](C)[C@H](O)[C@@H](C)C(=O)[C@@H](C)[C@H](O)[C@@H](C)/C=C/C(=O)O[C@@H]2[C@H](C)[C@H](CC1)O[C@]1(CC[C@H](C)[C@H](C[C@@H](C)O)O1)[C@H]2C [Oligomycin],Lactate Production by H9C2 Cells,[1]; 2 μM,226 ± 10 % Control
same,Lactate concentration / production in H9C2 cells (in words),[1],"increase in lactate concentration, greater than that of OXF-treated samples"
N[C@H](C(=O)O)c1ccc(O)cc1 [Oxfenicine],Lactate Production by H9C2 Cells,[1]; 2 mM,130 ± 7 % Control
same,Lactate concentration / production in H9C2 cells (in words),[1],increase in lactate
same,Glycolysis,[2],accelerates both glucose oxidation and glycolysis
same,Glucose oxidation,[2]; RKK108 10 μM,accelerates both glucose oxidation and glycolysis
same,Palmitate oxidation,[2]; RKK108 10 μM,reduces palmitate oxidation
